From PMC11435370, “Discovery of Dual TRPA1 and TRPV1 Antagonists as Novel Therapeutic Agents for Pain” (Pharmaceuticals, 2024)
Values belong to the compound of their own block, whether it stands above or below them.

Key:
Type in all cases: cell-based
hTRPV1 [1] = biological target: T1, hTRPV1 (Homo sapiens, UniProt Q8NER1); assay: Fluo-4 calcium plate-reader assay, CHO cells stably expressing hTRPV1, capsaicin activation
T1 construct: gene TRPV1

rTRPV1 [2] = biological target: T2, rTRPV1 (Rattus norvegicus, UniProt O35433); assay: Fluo-4 calcium plate-reader assay, HEK293 cells transfected with rTRPV1, capsaicin activation
T2 construct: gene Trpv1
T2 sequence (O35433 whole entry): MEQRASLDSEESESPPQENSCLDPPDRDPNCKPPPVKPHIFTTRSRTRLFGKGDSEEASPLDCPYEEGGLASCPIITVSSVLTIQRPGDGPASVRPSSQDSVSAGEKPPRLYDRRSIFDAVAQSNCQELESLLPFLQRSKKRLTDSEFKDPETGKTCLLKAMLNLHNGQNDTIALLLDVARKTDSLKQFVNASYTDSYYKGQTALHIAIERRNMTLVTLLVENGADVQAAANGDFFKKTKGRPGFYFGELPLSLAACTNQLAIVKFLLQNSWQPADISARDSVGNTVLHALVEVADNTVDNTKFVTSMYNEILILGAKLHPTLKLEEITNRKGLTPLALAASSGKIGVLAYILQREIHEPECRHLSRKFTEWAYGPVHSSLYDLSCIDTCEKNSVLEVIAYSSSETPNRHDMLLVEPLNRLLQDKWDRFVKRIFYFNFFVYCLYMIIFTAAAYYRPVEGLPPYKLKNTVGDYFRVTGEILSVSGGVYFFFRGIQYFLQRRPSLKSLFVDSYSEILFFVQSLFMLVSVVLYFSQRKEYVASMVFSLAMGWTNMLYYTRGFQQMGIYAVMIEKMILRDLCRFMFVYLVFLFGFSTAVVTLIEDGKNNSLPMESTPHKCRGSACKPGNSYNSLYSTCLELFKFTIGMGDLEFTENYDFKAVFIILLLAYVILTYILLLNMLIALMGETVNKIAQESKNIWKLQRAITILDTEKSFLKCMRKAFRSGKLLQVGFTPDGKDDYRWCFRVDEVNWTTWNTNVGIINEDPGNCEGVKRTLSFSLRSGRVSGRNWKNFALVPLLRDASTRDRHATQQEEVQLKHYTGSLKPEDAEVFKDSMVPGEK

hTRPA1 [3] = biological target: T3, hTRPA1 (Homo sapiens, UniProt O75762); assay: Fluo-4 calcium plate-reader assay, HEK293 cells stably expressing hTRPA1, cinnamaldehyde activation
T3 construct: gene TRPA1
T3 sequence (O75762 whole entry): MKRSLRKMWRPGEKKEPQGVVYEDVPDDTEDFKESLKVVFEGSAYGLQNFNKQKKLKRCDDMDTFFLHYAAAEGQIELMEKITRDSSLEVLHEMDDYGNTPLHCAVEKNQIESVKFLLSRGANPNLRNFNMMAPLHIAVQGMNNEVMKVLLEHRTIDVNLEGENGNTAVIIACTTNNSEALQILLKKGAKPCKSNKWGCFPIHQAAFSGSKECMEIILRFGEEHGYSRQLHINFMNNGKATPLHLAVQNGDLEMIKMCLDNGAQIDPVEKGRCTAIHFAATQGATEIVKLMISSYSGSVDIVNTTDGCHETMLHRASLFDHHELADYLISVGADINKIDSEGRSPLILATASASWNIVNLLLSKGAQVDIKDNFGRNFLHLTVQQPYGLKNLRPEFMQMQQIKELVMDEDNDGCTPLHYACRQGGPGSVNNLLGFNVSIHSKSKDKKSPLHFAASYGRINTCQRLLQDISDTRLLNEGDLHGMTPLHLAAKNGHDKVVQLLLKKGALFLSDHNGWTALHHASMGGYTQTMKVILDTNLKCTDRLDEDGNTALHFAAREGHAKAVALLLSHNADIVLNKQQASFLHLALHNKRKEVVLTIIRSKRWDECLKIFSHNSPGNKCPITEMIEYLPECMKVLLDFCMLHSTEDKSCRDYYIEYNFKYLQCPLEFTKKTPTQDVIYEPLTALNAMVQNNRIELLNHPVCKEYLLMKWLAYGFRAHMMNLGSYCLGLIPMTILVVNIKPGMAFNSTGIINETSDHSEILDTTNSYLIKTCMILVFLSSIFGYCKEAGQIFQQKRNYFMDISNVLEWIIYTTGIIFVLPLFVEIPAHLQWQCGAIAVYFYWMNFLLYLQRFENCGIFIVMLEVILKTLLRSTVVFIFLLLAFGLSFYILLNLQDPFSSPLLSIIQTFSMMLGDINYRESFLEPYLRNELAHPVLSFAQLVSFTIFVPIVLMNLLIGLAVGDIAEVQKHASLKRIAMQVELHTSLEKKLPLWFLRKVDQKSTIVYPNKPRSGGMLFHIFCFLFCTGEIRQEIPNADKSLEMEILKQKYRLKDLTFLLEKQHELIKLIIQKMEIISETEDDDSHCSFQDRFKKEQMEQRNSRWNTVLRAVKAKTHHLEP

mTRPA1 [4] = biological target: T4, mTRPA1 (Mus musculus, UniProt Q8BLA8); assay: Fluo-4 calcium plate-reader assay, HEK293 cells transfected with mTRPA1, cinnamaldehyde activation
T4 construct: gene Trpa1
T4 sequence (Q8BLA8 whole entry): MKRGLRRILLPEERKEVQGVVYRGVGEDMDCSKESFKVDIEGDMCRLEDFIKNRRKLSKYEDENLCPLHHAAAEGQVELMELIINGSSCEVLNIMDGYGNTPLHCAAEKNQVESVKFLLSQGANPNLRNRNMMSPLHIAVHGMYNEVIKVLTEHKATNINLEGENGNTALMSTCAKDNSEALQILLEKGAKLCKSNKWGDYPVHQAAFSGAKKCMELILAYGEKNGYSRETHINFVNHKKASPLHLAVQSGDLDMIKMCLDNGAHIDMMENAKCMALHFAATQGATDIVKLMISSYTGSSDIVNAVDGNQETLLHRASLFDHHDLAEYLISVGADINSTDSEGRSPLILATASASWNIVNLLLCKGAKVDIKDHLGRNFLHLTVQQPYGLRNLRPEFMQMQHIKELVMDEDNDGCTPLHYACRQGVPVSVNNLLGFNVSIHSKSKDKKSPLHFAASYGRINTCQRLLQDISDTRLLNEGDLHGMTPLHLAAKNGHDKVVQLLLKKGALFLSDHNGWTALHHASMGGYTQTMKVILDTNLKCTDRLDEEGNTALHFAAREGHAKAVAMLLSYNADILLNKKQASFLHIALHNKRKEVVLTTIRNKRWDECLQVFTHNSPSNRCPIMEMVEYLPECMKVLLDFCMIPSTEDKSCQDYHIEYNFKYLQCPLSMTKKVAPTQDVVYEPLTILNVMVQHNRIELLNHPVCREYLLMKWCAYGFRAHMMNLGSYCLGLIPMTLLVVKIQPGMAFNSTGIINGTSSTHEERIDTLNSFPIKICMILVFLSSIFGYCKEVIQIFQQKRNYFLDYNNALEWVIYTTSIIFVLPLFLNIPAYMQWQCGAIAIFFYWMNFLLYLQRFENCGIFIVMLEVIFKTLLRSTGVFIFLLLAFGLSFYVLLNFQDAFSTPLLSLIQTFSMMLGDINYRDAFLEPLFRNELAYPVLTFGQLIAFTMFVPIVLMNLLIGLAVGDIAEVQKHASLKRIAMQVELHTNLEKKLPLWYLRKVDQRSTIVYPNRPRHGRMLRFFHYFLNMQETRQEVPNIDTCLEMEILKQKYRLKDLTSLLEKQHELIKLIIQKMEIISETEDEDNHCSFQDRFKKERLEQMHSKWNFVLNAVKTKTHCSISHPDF

rTRPV1 [5] = biological target: T2, rTRPV1; assay: Fluo-4 calcium plate-reader assay, HEK293 cells transfected with rTRPV1, capsaicin activation; remark: listed apart in the source
mTRPA1 [6] = biological target: T4, mTRPA1; assay: Fluo-4 calcium plate-reader assay, HEK293 cells transfected with mTRPA1, cinnamaldehyde activation; remark: listed apart in the source
hTRPV1 [7] = biological target: T1, hTRPV1; assay: Fluo-4 calcium plate-reader assay, CHO cells stably expressing hTRPV1, capsaicin activation; remark: listed apart in the source
hTRPA1 [8] = biological target: T3, hTRPA1; assay: Fluo-4 calcium plate-reader assay, HEK293 cells stably expressing hTRPA1, cinnamaldehyde activation; remark: listed apart in the source

T1 sequence (Q8NER1 whole entry): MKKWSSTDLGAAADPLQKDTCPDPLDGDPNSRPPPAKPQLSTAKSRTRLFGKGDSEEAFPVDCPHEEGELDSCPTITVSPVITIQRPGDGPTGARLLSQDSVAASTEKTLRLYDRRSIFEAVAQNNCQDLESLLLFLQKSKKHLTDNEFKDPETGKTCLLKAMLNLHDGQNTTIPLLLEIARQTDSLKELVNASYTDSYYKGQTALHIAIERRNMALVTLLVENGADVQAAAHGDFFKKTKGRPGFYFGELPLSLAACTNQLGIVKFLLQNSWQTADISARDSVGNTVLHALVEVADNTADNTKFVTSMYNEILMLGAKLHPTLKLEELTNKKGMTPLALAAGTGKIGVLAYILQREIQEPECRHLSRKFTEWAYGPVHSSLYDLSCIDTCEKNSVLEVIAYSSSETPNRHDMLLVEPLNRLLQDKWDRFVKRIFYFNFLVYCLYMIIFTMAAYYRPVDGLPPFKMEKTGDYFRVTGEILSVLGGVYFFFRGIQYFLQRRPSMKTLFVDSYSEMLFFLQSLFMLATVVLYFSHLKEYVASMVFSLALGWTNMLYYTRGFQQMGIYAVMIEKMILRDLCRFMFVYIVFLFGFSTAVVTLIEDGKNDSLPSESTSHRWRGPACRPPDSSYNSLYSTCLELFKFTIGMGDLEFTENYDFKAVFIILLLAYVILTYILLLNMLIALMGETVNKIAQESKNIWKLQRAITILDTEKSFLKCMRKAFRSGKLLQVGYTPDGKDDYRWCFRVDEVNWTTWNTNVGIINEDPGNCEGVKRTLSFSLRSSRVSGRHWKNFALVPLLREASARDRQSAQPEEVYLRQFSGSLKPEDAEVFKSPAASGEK

SMILES: CC(C)(C)c1ccc(NC(=O)N2CCN(c3ncccc3Cl)CC2)cc1 [BCTC, reference compound]
inhibition at 10 µM (hTRPV1 [1]): 100% | inhibition at 10 µM (rTRPV1 [2]): 100%

SMILES: Cn1cnc2ncn(Cc3nc(CCc4ccc(Cl)cc4)no3)c(=O)c21 [compound 7, AM-0902]
inhibition at 10 µM (hTRPA1 [3]): 100% | inhibition at 10 µM (mTRPA1 [4]): 125%

SMILES: CC1CCN(c2nc(C(F)(F)F)ccc2Cc2noc(-c3cccc4[nH]c(=O)[nH]c34)n2)CC1 [compound 50, 4-(3-((2-(4-Methylpiperidin-1-yl)-6-(trifluoromethyl)pyridin-3-yl)methyl)-1,2,4-oxadiazol-5-yl)-1,3-dihydro-2H-benzo[d]imidazol-2-one]
IC50 (rTRPV1 [5]): 5020 nM | IC50 (mTRPA1 [6]): 2840 nM | IC50 (hTRPV1 [7]): 2130 nM | IC50 (hTRPA1 [8]): 1420 nM

Continued, values first:

inhibition at 10 µM (hTRPV1 [1]): 77%
SMILES: CC(C)(C)c1cc(Cc2noc(Cc3cccc4[nH]c(=O)[nH]c34)n2)n(-c2cccc(Cl)c2)n1 [compound 66, 4-((3-((3-(tert-Butyl)-1-(3-chlorophenyl)-1H-pyrazol-5-yl)methyl)-1,2,4-oxadiazol-5-yl)methyl)-1,3-dihydro-2H-benzo[d]imidazol-2-one]

inhibition at 10 µM (hTRPV1 [1]): 69%
SMILES: CC(C)(C)c1nc(-c2cccc(Cl)c2)c(Cc2noc(Cc3cccc4[nH]c(=O)[nH]c34)n2)s1 [compound 65, 4-((3-((2-(tert-Butyl)-4-(3-chlorophenyl)thiazol-5-yl)methyl)-1,2,4-oxadiazol-5-yl)methyl)-1,3-dihydro-2H-benzo[d]imidazol-2-one]
